Assay results as given in patent EP0308189B1, “Skin cleansing toilet bar with low moisture content” (THE PROCTER & GAMBLE COMPANY, priority 1987, dated 1989).

Test system: skin epidermis

Substance: Cocoyl Isethionate
- Relative Skin Barrier Penetration Value: 40
- Total mg Water Penetrating the Skin in 24 Hours: 60.3 ± 17.7 mg
